Data as given in ChEMBL document CHEMBL3596159, “Beyond substrate analogues: new inhibitor chemotypes for glycosyltransferases” (Medchemcomm, 2014).
Converted amounts (≈) assume the structure as drawn. Each block holds one molecule with its values, some of them ahead of it.

Assays:
[1] = biological target: T1, Beta-galactoside alpha-2,6-sialyltransferase 1 (Homo sapiens, UniProt P15907); assay: Inhibition of ST6N (unknown origin)
T1 sequence (P15907 whole entry): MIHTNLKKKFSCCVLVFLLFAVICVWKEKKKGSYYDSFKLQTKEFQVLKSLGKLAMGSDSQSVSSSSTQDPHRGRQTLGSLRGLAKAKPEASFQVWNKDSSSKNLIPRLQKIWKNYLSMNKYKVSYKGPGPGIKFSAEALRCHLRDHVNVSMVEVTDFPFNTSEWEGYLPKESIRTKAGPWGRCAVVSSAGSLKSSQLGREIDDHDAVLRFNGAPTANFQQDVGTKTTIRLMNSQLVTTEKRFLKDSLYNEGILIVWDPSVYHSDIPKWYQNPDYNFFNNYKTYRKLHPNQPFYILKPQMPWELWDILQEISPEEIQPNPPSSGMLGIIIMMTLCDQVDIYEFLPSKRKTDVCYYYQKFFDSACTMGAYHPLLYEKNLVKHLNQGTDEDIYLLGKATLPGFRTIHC

[2] = biological target: T2, CMP-N-acetylneuraminate-beta-galactosamide-alpha-2,3-sialyltransferase 1 (Homo sapiens, UniProt Q11201); assay: Inhibition of ST3Gal 1 (unknown origin)
T2 sequence (Q11201 whole entry): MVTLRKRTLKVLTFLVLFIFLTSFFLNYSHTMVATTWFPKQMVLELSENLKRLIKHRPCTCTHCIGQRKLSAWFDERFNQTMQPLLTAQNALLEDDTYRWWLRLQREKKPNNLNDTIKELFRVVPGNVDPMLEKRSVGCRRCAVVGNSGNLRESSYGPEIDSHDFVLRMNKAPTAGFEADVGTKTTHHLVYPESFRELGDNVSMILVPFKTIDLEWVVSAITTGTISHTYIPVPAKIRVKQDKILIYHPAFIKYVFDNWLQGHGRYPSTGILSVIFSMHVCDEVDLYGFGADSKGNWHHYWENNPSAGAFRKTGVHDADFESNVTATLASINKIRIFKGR

[3] = biological target: T3, 4-galactosyl-N-acetylglucosaminide 3-alpha-L-fucosyltransferase FUT5 (Homo sapiens, UniProt Q11128); assay: Inhibition of FucT-5 (unknown origin)
T3 sequence (Q11128 whole entry): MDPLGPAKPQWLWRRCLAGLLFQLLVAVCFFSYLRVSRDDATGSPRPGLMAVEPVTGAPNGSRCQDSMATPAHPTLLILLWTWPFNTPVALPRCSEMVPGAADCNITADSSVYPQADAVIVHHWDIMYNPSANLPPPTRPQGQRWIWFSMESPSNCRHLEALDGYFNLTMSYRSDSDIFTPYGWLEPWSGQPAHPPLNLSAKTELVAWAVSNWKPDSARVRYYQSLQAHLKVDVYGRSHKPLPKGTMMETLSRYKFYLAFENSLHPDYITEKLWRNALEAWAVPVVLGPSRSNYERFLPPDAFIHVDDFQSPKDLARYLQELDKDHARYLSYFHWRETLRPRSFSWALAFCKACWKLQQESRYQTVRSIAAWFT

[4] = biological target: T4, 4-galactosyl-N-acetylglucosaminide 3-alpha-L-fucosyltransferase FUT6 (Homo sapiens, UniProt P51993); assay: Inhibition of FucT-6 (unknown origin)
T4 sequence (P51993 whole entry): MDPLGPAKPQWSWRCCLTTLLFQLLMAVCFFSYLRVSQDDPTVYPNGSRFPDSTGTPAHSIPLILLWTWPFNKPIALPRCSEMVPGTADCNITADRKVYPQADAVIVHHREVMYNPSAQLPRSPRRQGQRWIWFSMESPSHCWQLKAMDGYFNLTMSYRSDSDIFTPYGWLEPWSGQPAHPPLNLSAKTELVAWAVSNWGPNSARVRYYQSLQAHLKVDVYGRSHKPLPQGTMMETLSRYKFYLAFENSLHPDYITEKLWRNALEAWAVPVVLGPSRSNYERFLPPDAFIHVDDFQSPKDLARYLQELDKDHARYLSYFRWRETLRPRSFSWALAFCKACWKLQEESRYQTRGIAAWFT

[5] = biological target: T5, CMP-N-acetylneuraminate-beta-1,4-galactoside alpha-2,3-sialyltransferase (Homo sapiens, UniProt Q11203); assay: Inhibition of ST3N (unknown origin)
T5 sequence (Q11203 whole entry): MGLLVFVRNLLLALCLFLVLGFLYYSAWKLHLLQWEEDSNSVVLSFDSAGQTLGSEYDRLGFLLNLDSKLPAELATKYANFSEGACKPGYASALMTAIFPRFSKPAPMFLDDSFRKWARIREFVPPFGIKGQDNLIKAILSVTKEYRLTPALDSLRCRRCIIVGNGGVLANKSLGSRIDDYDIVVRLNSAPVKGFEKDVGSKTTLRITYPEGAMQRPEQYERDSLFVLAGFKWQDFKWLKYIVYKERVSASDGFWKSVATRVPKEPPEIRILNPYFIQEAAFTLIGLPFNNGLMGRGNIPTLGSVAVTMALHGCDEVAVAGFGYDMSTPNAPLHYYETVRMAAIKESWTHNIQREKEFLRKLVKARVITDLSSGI

[6] = biological target: T6, Alpha-(1,3)-fucosyltransferase 7 (Homo sapiens, UniProt Q11130); assay: Inhibition of FucT-7 (unknown origin)
T6 sequence (Q11130 whole entry): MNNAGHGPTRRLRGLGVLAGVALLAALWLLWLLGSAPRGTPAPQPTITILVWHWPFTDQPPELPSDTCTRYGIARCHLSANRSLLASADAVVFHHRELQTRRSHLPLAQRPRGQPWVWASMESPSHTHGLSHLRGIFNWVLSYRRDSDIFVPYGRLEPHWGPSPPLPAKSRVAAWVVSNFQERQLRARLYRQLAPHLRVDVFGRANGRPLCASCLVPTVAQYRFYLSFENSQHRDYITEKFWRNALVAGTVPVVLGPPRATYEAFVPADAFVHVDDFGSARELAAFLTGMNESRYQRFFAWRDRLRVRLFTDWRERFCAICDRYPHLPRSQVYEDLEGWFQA

Candida albicans = assay: Antifungal activity against Candida albicans; format: functional
[7] = Inhibition of candida albicans beta-(1,3)-glucan synthase assessed as decrease in transfer of radiolabelled glucose from UDP-[3H]-glucose onto acceptor
[8] = biological target: T7, UDP-N-acetylglucosamine--N-acetylmuramyl-(pentapeptide) pyrophosphoryl-undecaprenol N-acetylglucosamine transferase (Escherichia coli (strain K12)) (UniProt P17443); assay: Inhibition of Escherichia coli MurG at 2.5 microg/ml
T7 sequence (whole entry): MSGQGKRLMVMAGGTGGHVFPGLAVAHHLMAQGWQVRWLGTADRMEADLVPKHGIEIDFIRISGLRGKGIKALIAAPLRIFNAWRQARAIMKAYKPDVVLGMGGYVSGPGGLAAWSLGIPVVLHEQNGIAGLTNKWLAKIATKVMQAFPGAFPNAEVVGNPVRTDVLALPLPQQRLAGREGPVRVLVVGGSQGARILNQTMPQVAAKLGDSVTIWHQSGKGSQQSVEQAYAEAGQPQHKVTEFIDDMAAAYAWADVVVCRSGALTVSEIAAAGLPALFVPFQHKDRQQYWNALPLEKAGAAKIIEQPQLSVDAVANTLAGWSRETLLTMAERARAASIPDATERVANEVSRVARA

[9] = biological target: UDP-N-acetylglucosamine--N-acetylmuramyl-(pentapeptide) pyrophosphoryl-undecaprenol N-acetylglucosamine transferase (Escherichia coli (strain K12), UniProt P17443); assay: Inhibition of Escherichia coli MurG
[10] = biological target: Alpha-(1,3)-fucosyltransferase 4 (Homo sapiens, UniProt P22083); assay: Inhibition of FucT-4 (unknown origin)
Sequence of Alpha-(1,3)-fucosyltransferase 4 (P22083 whole entry): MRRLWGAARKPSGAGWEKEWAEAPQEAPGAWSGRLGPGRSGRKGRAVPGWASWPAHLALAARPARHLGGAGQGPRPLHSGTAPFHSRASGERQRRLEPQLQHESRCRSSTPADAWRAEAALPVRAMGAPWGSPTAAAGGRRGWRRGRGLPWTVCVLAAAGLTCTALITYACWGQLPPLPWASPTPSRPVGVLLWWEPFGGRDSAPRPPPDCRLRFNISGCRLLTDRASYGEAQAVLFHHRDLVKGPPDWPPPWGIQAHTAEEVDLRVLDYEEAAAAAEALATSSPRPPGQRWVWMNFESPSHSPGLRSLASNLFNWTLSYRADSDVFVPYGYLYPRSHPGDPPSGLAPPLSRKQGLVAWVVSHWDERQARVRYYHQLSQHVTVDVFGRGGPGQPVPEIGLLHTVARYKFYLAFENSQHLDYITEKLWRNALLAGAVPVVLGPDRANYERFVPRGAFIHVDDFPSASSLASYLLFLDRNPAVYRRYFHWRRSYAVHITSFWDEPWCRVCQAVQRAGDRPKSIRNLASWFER

[11] = biological target: T2, CMP-N-acetylneuraminate-beta-galactosamide-alpha-2,3-sialyltransferase 1; assay: Inhibition of ST3Gal 1 (unknown origin) expressed in High Five cells; set-up: species or system BTI-TN-5B1-4
[12] = biological target: UDP-N-acetylglucosamine--peptide N-acetylglucosaminyltransferase 110 kDa subunit (Homo sapiens, UniProt O15294); assay: Inhibition of nucleocytoplasmic OGT (unknown origin)
Sequence of UDP-N-acetylglucosamine--peptide N-acetylglucosaminyltransferase 110 kDa subunit (O15294 whole entry): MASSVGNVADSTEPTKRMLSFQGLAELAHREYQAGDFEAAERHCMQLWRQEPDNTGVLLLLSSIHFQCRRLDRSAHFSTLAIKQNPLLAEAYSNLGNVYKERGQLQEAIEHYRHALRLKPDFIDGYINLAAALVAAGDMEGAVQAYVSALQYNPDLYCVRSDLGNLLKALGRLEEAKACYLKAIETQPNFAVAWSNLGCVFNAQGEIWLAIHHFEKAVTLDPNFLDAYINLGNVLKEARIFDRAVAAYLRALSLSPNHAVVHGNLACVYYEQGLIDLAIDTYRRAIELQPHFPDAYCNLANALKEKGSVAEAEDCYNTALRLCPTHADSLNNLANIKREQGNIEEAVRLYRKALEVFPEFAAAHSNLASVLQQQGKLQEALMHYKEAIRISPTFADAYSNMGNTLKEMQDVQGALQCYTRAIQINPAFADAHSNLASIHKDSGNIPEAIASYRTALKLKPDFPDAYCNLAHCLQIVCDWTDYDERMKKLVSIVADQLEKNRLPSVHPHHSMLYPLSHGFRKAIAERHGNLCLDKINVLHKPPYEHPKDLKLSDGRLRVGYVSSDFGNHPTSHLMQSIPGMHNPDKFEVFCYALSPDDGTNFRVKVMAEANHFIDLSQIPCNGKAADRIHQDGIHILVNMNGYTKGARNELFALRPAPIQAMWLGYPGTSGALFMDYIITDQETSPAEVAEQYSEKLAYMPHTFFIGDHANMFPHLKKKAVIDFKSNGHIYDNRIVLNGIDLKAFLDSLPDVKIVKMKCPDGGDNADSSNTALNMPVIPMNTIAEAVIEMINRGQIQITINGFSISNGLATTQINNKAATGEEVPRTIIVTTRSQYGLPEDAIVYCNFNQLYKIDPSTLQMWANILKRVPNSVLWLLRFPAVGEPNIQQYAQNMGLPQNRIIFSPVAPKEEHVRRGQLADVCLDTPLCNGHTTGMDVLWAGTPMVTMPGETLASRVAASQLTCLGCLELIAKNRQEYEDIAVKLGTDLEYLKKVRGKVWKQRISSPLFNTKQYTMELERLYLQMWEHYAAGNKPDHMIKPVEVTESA

[13] = Inhibition of short OGT (unknown origin); set-up: species or system Homo sapiens
[14] = Inhibition of human beta-1,4-GalT
[15] = biological target: Alpha-(1,6)-fucosyltransferase (Homo sapiens, UniProt Q9BYC5); assay: Inhibition of FucT-8 in human blood platelets
Sequence of Alpha-(1,6)-fucosyltransferase (Q9BYC5 whole entry): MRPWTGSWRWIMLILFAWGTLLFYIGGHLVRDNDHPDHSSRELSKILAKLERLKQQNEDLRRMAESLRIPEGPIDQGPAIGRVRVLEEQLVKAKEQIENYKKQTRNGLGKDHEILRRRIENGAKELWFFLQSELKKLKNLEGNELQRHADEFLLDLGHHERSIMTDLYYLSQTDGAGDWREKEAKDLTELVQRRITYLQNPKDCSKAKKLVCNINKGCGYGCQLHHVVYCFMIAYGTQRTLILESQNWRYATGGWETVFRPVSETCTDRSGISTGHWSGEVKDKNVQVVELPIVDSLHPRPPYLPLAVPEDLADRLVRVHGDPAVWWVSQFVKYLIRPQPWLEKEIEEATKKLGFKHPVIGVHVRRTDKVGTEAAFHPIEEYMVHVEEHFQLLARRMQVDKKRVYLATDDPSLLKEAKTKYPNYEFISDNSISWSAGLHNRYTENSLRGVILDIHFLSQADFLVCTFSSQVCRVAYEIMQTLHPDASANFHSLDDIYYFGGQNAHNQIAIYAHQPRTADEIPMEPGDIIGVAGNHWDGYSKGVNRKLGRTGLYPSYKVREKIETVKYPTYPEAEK

[16] = biological target: Ceramide glucosyltransferase (Homo sapiens, UniProt Q16739); assay: Inhibition of glucosylceramide synthase (unknown origin)
Sequence of Ceramide glucosyltransferase (Q16739 whole entry): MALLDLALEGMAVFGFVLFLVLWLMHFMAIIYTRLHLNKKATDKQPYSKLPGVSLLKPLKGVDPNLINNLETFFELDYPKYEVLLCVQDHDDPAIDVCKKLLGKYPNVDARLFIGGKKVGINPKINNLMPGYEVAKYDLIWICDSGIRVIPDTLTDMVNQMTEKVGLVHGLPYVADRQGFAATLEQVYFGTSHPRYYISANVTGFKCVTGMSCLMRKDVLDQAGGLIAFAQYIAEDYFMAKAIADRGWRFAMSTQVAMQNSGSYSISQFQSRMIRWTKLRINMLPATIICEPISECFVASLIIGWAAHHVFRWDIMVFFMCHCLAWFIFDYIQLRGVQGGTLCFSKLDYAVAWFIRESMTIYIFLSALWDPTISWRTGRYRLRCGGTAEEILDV

Molecule: C[C@@H]1CC[C@H]2C(C)(C)[C@H](O)[C@H](O)C[C@]2(C)[C@@]12Cc1c(O)cc3c(c1O2)COC3=O
IC50 [1]: 18.5 µM | IC50 [2]: 168 µM | IC50 [3]: > 200 µM | IC50 [4]: > 200 µM | IC50 [5]: 111 µM

Molecule: CC(C)CCCCCCCCCCCCc1cc(OS(=O)(=O)O)cc(OS(=O)(=O)O)c1
IC50 [6]: 4.8 µM

Molecule: CC(C)[C@@H](C)/C=C/[C@@H](C)[C@H]1CCC2=C3[C@@H](O)[C@@H]4O[C@@]45C[C@@H](OC(=O)[C@@H](N)[C@@H](OS(=O)(=O)O)C(C)C)CC[C@]5(C)[C@H]3CC[C@@]21C(=O)O
MIC (Candida albicans): 0.2 µg/mL (≈ 0.299 µM) | IC50 [7]: 3 µM

Molecule: CC1CCN(CN2C(=O)/C(=C\c3ccc(C(C)(C)C)cc3)SC2=S)CC1
inhibition [8]: 88% | Ki [9]: 1.3 µM

Molecule: O=C(O[C@H]1Cc2c(O)cc(O)cc2O[C@H]1c1cc(O)c(O)c(O)c1)c1cc(O)c(O)c(O)c1
IC50 [10]: 1.8 µM | IC50 [6]: 0.7 µM | IC50 [5]: 2.7 µM

Molecule: O=S(=O)(O)c1cc(Nc2nc(Cl)nc(Nc3ccc(Nc4nc(Cl)nc(Nc5cc(S(=O)(=O)O)cc6cc(S(=O)(=O)O)c(/N=N/c7ccccc7S(=O)(=O)O)c(O)c56)n4)cc3)n2)c2c(O)c(/N=N/c3ccccc3S(=O)(=O)O)c(S(=O)(=O)O)cc2c1
Ki [15]: 2 µM

More lines, now with the values ahead:

MIC (Candida albicans): 0.05 µg/mL (≈ 0.0705 µM) | IC50 [7]: 1 µM
Molecule: CC(=O)O[C@@H]1C[C@]23C4=CC[C@@]5(C)[C@H](C(=O)O)[C@@](C)([C@H](C)C(C)C)CC[C@]5(C)[C@H]4CC[C@H]2[C@@](C)(COC3O)[C@H]1O[C@@H]1O[C@H](CO)[C@@H](O)[C@H](O)[C@H]1O (some centres not stated) [ENFUMAFUNGIN]

IC50 [6]: 4.3 µM
Molecule: CCCCCCCCCCCCCCCc1cc(OS(=O)(=O)O)cc(OS(=O)(=O)O)c1

Ki [11]: 1.1 µM
Molecule: H-GNWWWW-OH

IC50 [12]: 100 µM | IC50 [13]: 60 µM
Molecule: N#Cc1ccc(CSc2nc(-c3cccs3)c3c(c2C(=O)O)CCCC3)cc1

Ki [14]: 192 µM
Molecule: CC(=O)N[C@H]1[C@H](O[C@H]2[C@@H](O)[C@@H](CO)O[C@@H](OCc3ccc4ccccc4c3)[C@@H]2O)O[C@H](CO)C[C@@H]1O

IC50 [16]: 164 µM
Molecule: CCCCCCCCO[C@H]1CN(CCCCCCCC)[C@H](CO)[C@@H](O)[C@@H]1O
